Experimental data: patent US20080070960A1, “Novel 3-Aryl-1,2-Benzisoxazole Derivatives and Use Thereof as Medicinal Products Against Cancer” (AVENTIS PHARMA S.A., priority 2005, published 2008)
pIC50: −log10 of the molar value.

The compounds below were run against Hsp82 (Saccharomyces cerevisiae, UniProt P02829) (assay: Hsp82 ATPase activity inhibition (malachite green inorganic phosphate method, or PK/LDH coupled method)). Settings: not given.
Assay type: biochemical
Method: The inorganic phosphate released during the hydrolysis of ATP by the ATPase activity of Hsp82 is quantified by the malachite green method. In the presence of this reagent, formation of the inorganic phosphate-molybdate-malachite green complex occurs, which complex absorbs at a wavelength of 620 nm.
The products to be evaluated are incubated in a reaction volume of 30 μl, in the presence of 1 μM Hsp82 and of 250 μM of substrate (ATP) in a buffer composed of 50 mM Hepes-NaOH (pH 7.5), 1 mM DTT, 5 mM MgCl2 and 50 mM KCl at 37° C. for 60 min. In parallel, a range of inorganic phosphate of between 1 and 40 μM is prepared in the same buffer. The ATPase activity is subsequently visualized by the addition of 60 μl of the biomol green reagent (Tebu). After incubation at ambient temperature for 20 min, the absorbance of the various wells is measured using a microplate reader at 620 nm. The concentration of inorganic phosphate of each sample is then calculated from the standard curve. The ATPase activity of Hsp82 is expressed as concentration of inorganic phosphate produced in 60 min. The effect of the various products tested is expressed as percentage inhibition of the ATPase activity.
The formation of ADP due to the ATPase activity of Hsp82 was used to develop another method for evaluating the enzymatic activity of this enzyme by application of an enzymatic coupling system involving pyruvate kinase (PK) and lactate dehydrogensase (LDH). In this kinetic-type spectrophotometric method, the PK catalyses the formation of ATP and of pyruvate from phosphoenol pyruvate (PEP) and from the ADP produced by Hsp82. The pyruvate formed, which is a substrate for LDH, is subsequently converted into lactate in the presence of NADH. In this case, the decrease in NADH concentration, measured by the decrease in absorbance at the wavelength of 340 nm, is proportional to the concentration of ADP produced by Hsp82.
The products tested are incubated in a reaction volume of 100 μl of buffer composed of 100 mM Hepes-NaOH (pH 7.5), 5 mM MgCl2, 1 mM DTT, 150 mM KCl, 0.3 mM NADH, 2.5 mM PEP and 250 μM ATP. This mixture is preincubated at 37° C. for 30 min before the addition of 3.77 units of LDH and 3.77 units of PK. The reaction is initiated by the addition of the product to be evaluated, at varying concentrations, and of Hsp82, at a concentration of 1 μM. The enzymatic activity of Hsp82 is then measured, continuously, in a microplate reader, at 37° C., at the wavelength of 340 nm. The initial rate of the reaction is obtained by measuring the slope of the tangent at the origin of the curve recorded. The enzymatic activity is expressed in μM of ADP formed per minute. The effect of the various products tested is expressed as percentage inhibition of the ATPase activity.

Hsp82, sequence (P02829 whole entry): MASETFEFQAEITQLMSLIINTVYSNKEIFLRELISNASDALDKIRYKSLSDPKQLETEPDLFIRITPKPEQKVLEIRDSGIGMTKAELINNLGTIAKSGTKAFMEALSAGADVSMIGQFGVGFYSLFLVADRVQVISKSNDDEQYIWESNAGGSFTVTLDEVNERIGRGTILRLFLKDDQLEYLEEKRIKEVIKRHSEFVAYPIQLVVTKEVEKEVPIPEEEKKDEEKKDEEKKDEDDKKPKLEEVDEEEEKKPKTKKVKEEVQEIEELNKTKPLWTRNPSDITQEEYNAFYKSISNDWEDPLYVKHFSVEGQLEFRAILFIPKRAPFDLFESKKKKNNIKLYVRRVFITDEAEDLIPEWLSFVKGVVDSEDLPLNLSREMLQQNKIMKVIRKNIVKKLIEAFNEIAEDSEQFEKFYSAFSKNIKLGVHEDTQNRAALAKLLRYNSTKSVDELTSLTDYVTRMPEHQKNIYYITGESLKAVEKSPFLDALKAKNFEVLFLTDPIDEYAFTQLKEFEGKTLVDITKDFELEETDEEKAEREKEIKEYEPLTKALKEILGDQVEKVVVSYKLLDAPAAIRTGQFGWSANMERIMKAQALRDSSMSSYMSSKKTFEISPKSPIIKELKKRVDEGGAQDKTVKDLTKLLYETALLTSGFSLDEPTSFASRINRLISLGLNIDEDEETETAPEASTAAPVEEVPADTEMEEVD

For `Oc1ccc(-c2noc3ccccc23)c(O)c1` [Example 1, 4-(1,2-Benzisoxazol-3-yl)benzene-1,3-diol], the pIC50 was 5.00 to 6.00.

Same assay, conditions: inhibition of ATPase activity of Hsp82; 1 μM Hsp82, 250 μM ATP, 37° C.; read-out: IC50

Compared with `Oc1cc(O)c(-c2noc3ccccc23)cc1CNc1ccc(Cl)c(Cl)c1` [Example 11, 4-(1,2-Benzisoxazol-3-yl)-6-(3,4-dichlorophenylamino)methylbenzene-1,3-diol], `Cc1ccc(NCc2cc(-c3noc4ccccc34)c(O)cc2O)cc1C` [Example 9, 4-(1,2-Benzisoxazol-3-yl)-6-(3,4-dimethylphenylamino)methylbenzene-1,3-diol] is higher in pIC50: 5.00 to 6.00 for the first, over 6.00 for the second. The second is the more potent here.

`Oc1cc(O)c(-c2noc3ccccc23)cc1/C=N/c1ccc(Cl)c(Cl)c1` [Example 12, 4-(1,2-benzisoxazol-3-yl)-6-(3,4-dichlorophenyl)iminomethylbenzene-1,3-diol] and `Oc1cc(O)c(-c2noc3ccccc23)cc1Br` [Example 2, 4-(1,2-Benzisoxazol-3-yl)-6-bromobenzene-1,3-diol] fall in the same range of pIC50: 5.00 to 6.00 for the first, 5.00 to 6.00 for the second.

Compared with `CCc1cc(-c2noc3ccccc23)c(O)cc1O` [Example 6, 4-(1,2-Benzisoxazol-3-yl)-6-ethylbenzene-1,3-diol], `COC(=O)c1cc(-c2noc3ccccc23)c(O)cc1O` [Example 3, 5-(1,2-Benzisoxazol-3-yl)-2,4-dihydroxybenzenecarboxylic acid methyl ester] is lower in pIC50: 5.00 to 6.00 for the first, 4.00 to 5.00 for the second.

`O=C(Cc1ccccc1)c1cc(-c2noc3ccccc23)c(O)cc1O` [Example 5] and `O=C(NCc1ccccc1)c1cc(-c2noc3ccccc23)c(O)cc1O` [Example 4, N1-Phenylmethyl-5-(1,2-benzisoxazol-3-yl)-2,4-dihydroxybenzenecarboxamide] fall in the same range of pIC50: 4.00 to 5.00 for the first, 4.00 to 5.00 for the second.

Compared with `COc1cc(O)c(-c2noc3ccccc23)cc1CNc1ccc(C)c(C)c1` [Example 10, 2-(1,2-benzisoxazol-3-yl)-4-(3,4-dimethylphenylamino)methyl-5-methoxyphenol], `Oc1cc(O)c(-c2noc3ccccc23)cc1CNc1ccccc1` [Example 8, 4-(1,2-Benzisoxazol-3-yl)-6-(phenylamino)methylbenzene-1,3-diol] is higher in pIC50: 4.00 to 5.00 for the first, 5.00 to 6.00 for the second.

`Oc1cc(O)c(-c2noc3ccccc23)cc1CCc1ccccc1` [Example 7, 4-(1,2-Benzisoxazol-3-yl)-6-(2-phenylethyl)benzene-1,3-diol] showed a pIC50 of 5.00 to 6.00.
